Measured values published in ChEMBL document CHEMBL4308908, “Lamellarin-inspired potent topoisomerase I inhibitors with the unprecedented benzo[g][1]benzopyrano[4,3-b]indol-6(13H)-one scaffold” (Bioorg Med Chem, 2019).
Active and inactive are the calls of the source. The rule behind the calls is not given here.

Columns and labels:
MCF7 = assay: Antiproliferative activity against human MCF7 cells after 48 hrs by SRB assay; type: functional; details: MCF7, 48 h, read-out: GI50
U-251 = assay: Antiproliferative activity against human U251 cells after 48 hrs by SRB assay; type: functional; details: U-251, 48 h, read-out: GI50
HCT-116 = assay: Antiproliferative activity against human HCT116 cells after 48 hrs by SRB assay; type: functional; details: HCT-116, 48 h, read-out: GI50
NCI-H522 = assay: Antiproliferative activity against human NCI-H522 cells after 48 hrs by SRB assay; type: functional; details: NCI-H522, 48 h, read-out: GI50
LOX IMVI = assay: Antiproliferative activity against human LOXIMVI cells after 48 hrs by SRB assay; type: functional; details: read-out: GI50
SK-OV-3 = assay: Antiproliferative activity against human SKOV3 cells after 48 hrs by SRB assay; type: functional; details: SK-OV-3, 48 h, read-out: GI50
ACHN = assay: Antiproliferative activity against human ACHN cells after 48 hrs by SRB assay; type: functional; details: read-out: GI50
MKN-28 = assay: Antiproliferative activity against human MKN28 cells after 48 hrs by SRB assay; type: functional; details: MKN-28, 48 h, read-out: GI50
DU-145 = assay: Antiproliferative activity against human DU145 cells after 48 hrs by SRB assay; type: functional; details: DU-145, 48 h, read-out: GI50
[1] = molecular target: T1, DNA topoisomerase I (Bos taurus) (UniProt F1MN93); assay: Inhibition of calf thymus DNA topoisomerase 1 assessed as reduction in enzyme-mediated relaxation of supercoiled pBR322 plasmid DNA at 10 uM after 30 mins by agarose gel electrophoresis
T1 sequence (whole entry): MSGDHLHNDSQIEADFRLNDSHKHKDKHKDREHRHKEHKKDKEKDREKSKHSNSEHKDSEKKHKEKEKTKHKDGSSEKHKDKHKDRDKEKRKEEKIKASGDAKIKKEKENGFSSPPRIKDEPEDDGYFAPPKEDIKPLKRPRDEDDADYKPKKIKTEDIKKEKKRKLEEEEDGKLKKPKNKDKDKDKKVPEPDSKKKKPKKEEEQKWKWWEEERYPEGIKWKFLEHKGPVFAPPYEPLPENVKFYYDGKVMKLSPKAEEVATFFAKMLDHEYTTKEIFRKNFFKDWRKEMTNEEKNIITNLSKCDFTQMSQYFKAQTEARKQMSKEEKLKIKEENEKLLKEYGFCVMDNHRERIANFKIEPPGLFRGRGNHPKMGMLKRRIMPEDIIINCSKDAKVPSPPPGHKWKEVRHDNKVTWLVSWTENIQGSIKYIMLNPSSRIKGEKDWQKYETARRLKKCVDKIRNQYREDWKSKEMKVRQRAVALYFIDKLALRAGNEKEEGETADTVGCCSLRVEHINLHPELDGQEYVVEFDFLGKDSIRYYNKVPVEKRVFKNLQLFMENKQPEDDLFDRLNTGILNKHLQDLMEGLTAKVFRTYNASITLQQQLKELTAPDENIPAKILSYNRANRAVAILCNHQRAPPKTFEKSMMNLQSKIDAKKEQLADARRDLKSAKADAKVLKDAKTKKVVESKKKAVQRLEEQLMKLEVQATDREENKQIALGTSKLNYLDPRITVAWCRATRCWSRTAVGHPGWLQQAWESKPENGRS

[2] = molecular target: T1, DNA topoisomerase I (Bos taurus); assay: Inhibition of calf thymus DNA topoisomerase 1 assessed as reduction in enzyme-mediated relaxation of supercoiled pBR322 plasmid DNA at 10 uM after 30 mins by ethidium bromide staining-based agarose gel electrophoresis
Colon 26 = assay: Antitumor activity against mouse Colon 26 cells implanted in BALB/c mouse at 50 mg/kg, iv administered every 2 days for 7 times starting 1 day after tumor implantation and measured daily until day 20; type: functional, organism-based

Row | Structure (SMILES) | GI50 (MCF7) [nM] | GI50 (U-251) [nM] | GI50 (HCT-116) [nM] | GI50 (NCI-H522) [nM] | GI50 (LOX IMVI) [nM] | GI50 (SK-OV-3) [nM] | GI50 (ACHN) [nM] | GI50 (MKN-28) [nM] | GI50 (DU-145) [nM] | inhibition [1] | inhibition [2] | Activity (Colon 26)
1 | CCn1c2c3cc(OC)c(O)cc3ccc2c2c(=O)oc3cc(O)c(OC)cc3c21 | < 10 | < 10 | < 10 | < 10 | < 10 | < 10 | < 10 | < 10 | < 10 | – | – | –
2 | C=CCn1c2c3cc(OC)c(O)cc3ccc2c2c(=O)oc3cc(O)c(OC)cc3c21 | 14 | 7.6 | 25 | 9.5 | 6.4 | 29 | 4.2 | 82 | 6.5 | – | – | –
3 | C#CCn1c2c3cc(OC)c(O)cc3ccc2c2c(=O)oc3cc(O)c(OC)cc3c21 | 18 | < 10 | 34 | < 10 | < 10 | 56 | < 10 | 66 | 27 | – | – | –
4 | COc1cc2c(cc1O)oc(=O)c1c2c(CN(C)C)c2c3cc(OC)c(O)cc3ccn21 | 55 | 100 | 310 | 82 | 180 | 1600 | 44 | 2300 | 110 | – | – | –
5 | COc1cc2c(cc1O)oc(=O)c1c2c(Cl)c2c3cc(OC)c(O)cc3ccn21 | 13 | < 10 | 37 | < 10 | < 10 | 250 | < 10 | 130 | < 10 | – | – | –
6 | COc1cc2c(cc1O)oc(=O)c1c2cc2c3cc(OC)c(O)cc3ccn21 | 76 | 27 | 33 | < 10 | 20 | 83 | 14 | 84 | 20 | – | – | –
7 | CCc1c2c(nc3ccc(O)cc13)-c1cc3c(c(=O)n1C2)COC(=O)[C@]3(O)CC [7-ETHYL-10-HYDROXYCAMPTOTHECIN] | 3 | 2.8 | 23 | 3.7 | 5.3 | 23 | 5.9 | 110 | 4.3 | – | – | –
8 | COc1cc2c(ccc3c4c(=O)oc5cc(O)c(OC)cc5c4n(CCN(C)C)c23)cc1O | 2.6 | 4 | 9.7 | 3.9 | 2.7 | 26 | 1.9 | 67 | 2 | Active | Active | –
9 | CC[C@@]1(O)C(=O)OCc2c1cc1n(c2=O)Cc2cc3ccccc3nc2-1 | – | – | – | – | – | – | – | – | – | Active | Active | –
10 | COc1cc(-c2c3c4cc(OC)c(O)cc4oc(=O)c3n3ccc4cc(O)c(OC)cc4c23)ccc1O [LAMELLARIN D] | < 10 | < 10 | < 10 | < 10 | < 10 | 38 | < 10 | 50 | < 10 | Active | Active | –
11 | COc1cc2c(cc1O)oc(=O)c1c2c(F)c2c3cc(OC)c(O)cc3ccn21 | 110 | 71 | 120 | < 10 | 24 | 470 | 28 | 360 | 24 | – | – | –
12 | COc1cc2c(cc1O)oc(=O)c1c2c(C)c2c3cc(OC)c(O)cc3ccn21 | 110 | 9.1 | 33 | 4.7 | 5.5 | 38 | 3.8 | 64 | 4.7 | – | – | –
13 | COc1cc2c(ccc3c2[nH]c2c4cc(OC)c(O)cc4oc(=O)c32)cc1O | 68 | < 10 | 88 | < 10 | 21 | 330 | 110 | 1600 | 51 | Active | Active | –
14 | CCc1c2c(nc3ccc(OC(=O)N4CCC(N5CCCCC5)CC4)cc13)-c1cc3c(c(=O)n1C2)COC(=O)[C@]3(O)CC | – | – | – | – | – | – | – | – | – | – | – | Active
15 | COc1cc2c(cc1O)oc(=O)c1c2c(C=O)c2c3cc(OC)c(O)cc3ccn21 | 37 | 29 | 78 | 21 | 35 | 230 | 26 | 230 | 28 | – | – | –
16 | COc1cc2c(cc1O)oc(=O)c1c2c(Br)c2c3cc(OC)c(O)cc3ccn21 | 41 | 29 | 67 | 14 | 25 | 500 | 15 | 560 | 28 | – | – | –
